In test [1] the target is Serine/threonine-protein kinase SIK2 (Homo sapiens, UniProt Q9H0K1).
Test [2] deals with Bone morphogenetic protein receptor type-1B (Homo sapiens, UniProt O00238).
Test [3] concerns the target Non-receptor tyrosine-protein kinase TYK2 (Homo sapiens, UniProt P29597).
For another test, the target named is Wee1-like protein kinase (Homo sapiens, UniProt P30291).
Test [4] concerns the target Mitogen-activated protein kinase 10 (Homo sapiens, UniProt P53779).
The target in the next test is GTP-binding protein 4 (Homo sapiens, UniProt Q9BZE4).
For a further test, the target named is T1, ADP/ATP translocase 2 (Homo sapiens, UniProt P05141).
T1 sequence (P05141 whole entry): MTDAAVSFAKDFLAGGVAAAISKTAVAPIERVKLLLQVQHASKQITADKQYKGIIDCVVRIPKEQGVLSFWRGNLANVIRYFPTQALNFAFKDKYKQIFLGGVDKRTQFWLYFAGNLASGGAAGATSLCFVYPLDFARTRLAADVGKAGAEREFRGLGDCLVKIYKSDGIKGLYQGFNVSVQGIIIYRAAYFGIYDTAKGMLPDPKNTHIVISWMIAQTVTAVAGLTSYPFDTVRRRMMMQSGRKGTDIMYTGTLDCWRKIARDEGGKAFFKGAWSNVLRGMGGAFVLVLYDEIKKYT

The target in test [5] is Mitogen-activated protein kinase kinase kinase kinase 4 (Homo sapiens, UniProt O95819).
In test [6] the target is Serine/threonine-protein kinase 10 (Homo sapiens, UniProt O94804).
Sequence of Serine/threonine-protein kinase 10 (O94804 whole entry): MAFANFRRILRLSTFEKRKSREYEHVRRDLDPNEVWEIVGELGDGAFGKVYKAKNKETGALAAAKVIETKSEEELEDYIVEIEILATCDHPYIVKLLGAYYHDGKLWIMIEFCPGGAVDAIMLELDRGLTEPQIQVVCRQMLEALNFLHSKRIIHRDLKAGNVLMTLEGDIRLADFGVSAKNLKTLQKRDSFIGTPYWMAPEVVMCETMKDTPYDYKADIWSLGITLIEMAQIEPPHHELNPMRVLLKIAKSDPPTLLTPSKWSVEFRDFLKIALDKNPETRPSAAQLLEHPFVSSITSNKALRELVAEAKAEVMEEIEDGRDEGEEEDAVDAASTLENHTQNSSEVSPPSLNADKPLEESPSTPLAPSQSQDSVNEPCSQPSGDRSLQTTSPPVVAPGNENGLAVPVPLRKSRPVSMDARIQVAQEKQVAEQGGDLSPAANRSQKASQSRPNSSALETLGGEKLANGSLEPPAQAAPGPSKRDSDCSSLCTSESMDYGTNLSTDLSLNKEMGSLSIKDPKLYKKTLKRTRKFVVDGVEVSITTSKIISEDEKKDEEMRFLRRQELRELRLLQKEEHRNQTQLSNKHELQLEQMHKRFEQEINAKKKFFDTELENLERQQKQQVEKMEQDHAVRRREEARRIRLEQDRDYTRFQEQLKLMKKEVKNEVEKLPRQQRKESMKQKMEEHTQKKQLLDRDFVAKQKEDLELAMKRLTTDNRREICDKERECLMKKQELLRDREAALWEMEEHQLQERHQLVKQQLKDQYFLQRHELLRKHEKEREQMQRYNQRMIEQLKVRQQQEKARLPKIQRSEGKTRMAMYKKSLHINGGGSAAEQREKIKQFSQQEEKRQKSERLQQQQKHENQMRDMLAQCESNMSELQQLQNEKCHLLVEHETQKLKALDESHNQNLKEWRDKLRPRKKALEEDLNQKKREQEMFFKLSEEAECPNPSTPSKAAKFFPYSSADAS
The target in test [7] is Cyclin-dependent kinase 3 (Homo sapiens, UniProt Q00526).
Sequence of Cyclin-dependent kinase 3 (Q00526 whole entry): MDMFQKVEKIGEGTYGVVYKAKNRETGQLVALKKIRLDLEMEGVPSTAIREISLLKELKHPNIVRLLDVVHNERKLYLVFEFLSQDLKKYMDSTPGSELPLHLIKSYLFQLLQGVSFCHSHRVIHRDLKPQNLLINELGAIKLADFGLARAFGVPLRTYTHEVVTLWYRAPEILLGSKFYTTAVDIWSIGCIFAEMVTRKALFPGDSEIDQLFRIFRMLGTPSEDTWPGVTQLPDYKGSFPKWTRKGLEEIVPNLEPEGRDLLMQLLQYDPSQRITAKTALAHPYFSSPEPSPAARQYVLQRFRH
The target in test [8] is T2, Acyl-CoA dehydrogenase family member 11 (Homo sapiens, UniProt Q709F0).
T2 sequence (Q709F0 whole entry): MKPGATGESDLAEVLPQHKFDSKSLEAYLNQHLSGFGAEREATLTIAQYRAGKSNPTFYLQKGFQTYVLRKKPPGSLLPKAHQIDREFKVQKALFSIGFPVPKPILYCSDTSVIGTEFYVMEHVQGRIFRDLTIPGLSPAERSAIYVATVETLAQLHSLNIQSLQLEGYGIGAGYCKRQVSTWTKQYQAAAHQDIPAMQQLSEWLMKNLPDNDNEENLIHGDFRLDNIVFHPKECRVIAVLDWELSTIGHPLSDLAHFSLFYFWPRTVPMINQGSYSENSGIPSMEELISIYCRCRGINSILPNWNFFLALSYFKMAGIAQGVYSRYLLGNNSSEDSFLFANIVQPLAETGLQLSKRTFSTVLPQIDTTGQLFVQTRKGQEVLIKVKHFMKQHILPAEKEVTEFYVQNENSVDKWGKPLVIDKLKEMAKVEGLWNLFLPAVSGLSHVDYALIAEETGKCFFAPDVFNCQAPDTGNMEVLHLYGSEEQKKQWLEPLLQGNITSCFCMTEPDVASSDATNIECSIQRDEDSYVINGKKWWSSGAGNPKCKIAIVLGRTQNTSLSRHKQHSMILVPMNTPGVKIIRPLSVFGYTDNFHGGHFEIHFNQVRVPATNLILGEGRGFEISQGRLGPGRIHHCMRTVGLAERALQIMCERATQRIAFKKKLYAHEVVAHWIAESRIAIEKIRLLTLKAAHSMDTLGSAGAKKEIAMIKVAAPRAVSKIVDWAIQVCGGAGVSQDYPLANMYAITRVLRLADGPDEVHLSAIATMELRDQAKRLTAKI

In test [9] the target is T3, Serine/threonine-protein kinase ULK1 (Homo sapiens, UniProt O75385).
T3 sequence (O75385 whole entry): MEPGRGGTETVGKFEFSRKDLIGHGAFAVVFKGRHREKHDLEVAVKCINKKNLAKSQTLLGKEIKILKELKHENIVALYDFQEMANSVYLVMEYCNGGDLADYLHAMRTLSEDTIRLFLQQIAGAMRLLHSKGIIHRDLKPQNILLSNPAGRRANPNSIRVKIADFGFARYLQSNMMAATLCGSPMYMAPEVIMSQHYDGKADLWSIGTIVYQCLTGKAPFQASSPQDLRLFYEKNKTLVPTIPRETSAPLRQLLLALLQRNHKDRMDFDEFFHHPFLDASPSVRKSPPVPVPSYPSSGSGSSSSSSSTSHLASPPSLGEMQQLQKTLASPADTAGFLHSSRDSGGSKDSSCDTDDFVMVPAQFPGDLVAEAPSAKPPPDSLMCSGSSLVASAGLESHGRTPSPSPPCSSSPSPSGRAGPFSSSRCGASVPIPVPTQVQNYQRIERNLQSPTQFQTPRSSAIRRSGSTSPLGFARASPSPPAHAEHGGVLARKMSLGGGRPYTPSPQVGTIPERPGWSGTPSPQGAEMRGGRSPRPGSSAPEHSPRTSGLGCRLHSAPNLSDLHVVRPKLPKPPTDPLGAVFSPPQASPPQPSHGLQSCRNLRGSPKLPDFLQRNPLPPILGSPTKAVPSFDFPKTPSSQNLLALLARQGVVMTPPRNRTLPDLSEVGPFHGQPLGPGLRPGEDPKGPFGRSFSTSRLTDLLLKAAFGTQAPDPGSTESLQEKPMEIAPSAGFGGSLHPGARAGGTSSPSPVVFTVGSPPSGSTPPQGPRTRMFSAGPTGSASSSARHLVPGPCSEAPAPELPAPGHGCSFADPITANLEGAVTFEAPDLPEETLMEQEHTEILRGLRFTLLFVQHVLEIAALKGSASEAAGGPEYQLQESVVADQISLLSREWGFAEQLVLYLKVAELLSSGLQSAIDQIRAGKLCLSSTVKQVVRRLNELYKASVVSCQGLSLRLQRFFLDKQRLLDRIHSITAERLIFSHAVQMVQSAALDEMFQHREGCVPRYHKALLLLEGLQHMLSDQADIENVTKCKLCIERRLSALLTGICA

Test [10] addresses Protein-tyrosine kinase 6 (Homo sapiens, UniProt Q13882).

Active and inactive are the calls of the source. Rule as the data show it, for most assays here: actives have a measured Kd and inactives only a lower limit.
Also: in the data inactive means no Kd found up to 30 µM.

Sequence of Wee1-like protein kinase (P30291 whole entry): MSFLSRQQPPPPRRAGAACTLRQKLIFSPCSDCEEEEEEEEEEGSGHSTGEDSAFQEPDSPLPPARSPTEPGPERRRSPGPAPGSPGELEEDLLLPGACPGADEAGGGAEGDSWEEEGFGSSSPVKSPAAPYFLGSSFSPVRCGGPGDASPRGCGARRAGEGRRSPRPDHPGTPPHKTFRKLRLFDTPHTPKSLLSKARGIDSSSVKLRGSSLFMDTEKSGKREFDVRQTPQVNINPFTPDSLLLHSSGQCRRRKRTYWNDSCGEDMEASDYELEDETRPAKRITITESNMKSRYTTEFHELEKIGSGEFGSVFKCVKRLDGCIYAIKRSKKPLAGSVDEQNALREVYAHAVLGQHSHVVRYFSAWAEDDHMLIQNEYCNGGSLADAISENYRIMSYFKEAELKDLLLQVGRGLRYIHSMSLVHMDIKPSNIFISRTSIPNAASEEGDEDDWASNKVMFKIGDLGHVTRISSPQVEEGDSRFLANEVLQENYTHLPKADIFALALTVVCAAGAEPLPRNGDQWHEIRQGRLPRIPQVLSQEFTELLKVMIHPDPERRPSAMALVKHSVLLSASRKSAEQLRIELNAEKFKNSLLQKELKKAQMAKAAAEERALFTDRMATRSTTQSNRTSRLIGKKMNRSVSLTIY
Sequence of Serine/threonine-protein kinase SIK2 (Q9H0K1 whole entry): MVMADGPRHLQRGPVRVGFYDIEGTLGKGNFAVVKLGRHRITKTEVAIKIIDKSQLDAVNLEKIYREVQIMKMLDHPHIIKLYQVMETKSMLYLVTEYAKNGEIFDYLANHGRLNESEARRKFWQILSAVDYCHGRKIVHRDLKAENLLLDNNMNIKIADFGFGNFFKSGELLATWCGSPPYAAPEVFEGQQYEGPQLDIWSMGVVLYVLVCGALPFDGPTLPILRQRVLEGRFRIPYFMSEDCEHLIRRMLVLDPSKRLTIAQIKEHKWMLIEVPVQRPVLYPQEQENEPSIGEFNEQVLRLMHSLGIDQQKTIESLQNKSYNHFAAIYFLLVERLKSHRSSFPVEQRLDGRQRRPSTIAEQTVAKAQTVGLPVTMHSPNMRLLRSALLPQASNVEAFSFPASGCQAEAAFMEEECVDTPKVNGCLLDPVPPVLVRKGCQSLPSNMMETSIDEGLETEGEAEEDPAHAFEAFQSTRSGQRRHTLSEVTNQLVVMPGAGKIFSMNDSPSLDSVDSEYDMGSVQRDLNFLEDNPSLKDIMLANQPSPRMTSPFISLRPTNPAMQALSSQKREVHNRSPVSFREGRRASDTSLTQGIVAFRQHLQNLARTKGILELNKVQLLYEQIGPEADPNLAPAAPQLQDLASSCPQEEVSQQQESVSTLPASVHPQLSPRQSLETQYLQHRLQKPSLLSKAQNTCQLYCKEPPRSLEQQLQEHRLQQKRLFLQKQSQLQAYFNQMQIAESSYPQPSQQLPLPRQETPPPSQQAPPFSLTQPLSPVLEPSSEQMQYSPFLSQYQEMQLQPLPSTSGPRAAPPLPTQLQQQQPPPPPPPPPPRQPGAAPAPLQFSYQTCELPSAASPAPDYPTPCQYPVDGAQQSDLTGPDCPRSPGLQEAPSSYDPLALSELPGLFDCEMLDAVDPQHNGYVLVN
Sequence of Mitogen-activated protein kinase 10 (P53779 whole entry): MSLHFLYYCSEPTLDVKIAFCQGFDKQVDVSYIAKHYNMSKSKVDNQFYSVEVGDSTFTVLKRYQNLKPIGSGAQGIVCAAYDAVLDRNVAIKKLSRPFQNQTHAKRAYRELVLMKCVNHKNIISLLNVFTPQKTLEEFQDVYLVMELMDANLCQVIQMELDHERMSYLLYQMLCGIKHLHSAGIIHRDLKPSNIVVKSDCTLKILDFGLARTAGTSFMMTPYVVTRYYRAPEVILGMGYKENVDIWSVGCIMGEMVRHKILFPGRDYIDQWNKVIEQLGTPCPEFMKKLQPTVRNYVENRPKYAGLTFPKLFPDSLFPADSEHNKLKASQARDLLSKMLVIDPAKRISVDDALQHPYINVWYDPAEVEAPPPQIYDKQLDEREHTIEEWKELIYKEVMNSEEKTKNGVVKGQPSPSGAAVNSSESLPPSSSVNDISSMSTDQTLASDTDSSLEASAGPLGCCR
Sequence of Non-receptor tyrosine-protein kinase TYK2 (P29597 whole entry): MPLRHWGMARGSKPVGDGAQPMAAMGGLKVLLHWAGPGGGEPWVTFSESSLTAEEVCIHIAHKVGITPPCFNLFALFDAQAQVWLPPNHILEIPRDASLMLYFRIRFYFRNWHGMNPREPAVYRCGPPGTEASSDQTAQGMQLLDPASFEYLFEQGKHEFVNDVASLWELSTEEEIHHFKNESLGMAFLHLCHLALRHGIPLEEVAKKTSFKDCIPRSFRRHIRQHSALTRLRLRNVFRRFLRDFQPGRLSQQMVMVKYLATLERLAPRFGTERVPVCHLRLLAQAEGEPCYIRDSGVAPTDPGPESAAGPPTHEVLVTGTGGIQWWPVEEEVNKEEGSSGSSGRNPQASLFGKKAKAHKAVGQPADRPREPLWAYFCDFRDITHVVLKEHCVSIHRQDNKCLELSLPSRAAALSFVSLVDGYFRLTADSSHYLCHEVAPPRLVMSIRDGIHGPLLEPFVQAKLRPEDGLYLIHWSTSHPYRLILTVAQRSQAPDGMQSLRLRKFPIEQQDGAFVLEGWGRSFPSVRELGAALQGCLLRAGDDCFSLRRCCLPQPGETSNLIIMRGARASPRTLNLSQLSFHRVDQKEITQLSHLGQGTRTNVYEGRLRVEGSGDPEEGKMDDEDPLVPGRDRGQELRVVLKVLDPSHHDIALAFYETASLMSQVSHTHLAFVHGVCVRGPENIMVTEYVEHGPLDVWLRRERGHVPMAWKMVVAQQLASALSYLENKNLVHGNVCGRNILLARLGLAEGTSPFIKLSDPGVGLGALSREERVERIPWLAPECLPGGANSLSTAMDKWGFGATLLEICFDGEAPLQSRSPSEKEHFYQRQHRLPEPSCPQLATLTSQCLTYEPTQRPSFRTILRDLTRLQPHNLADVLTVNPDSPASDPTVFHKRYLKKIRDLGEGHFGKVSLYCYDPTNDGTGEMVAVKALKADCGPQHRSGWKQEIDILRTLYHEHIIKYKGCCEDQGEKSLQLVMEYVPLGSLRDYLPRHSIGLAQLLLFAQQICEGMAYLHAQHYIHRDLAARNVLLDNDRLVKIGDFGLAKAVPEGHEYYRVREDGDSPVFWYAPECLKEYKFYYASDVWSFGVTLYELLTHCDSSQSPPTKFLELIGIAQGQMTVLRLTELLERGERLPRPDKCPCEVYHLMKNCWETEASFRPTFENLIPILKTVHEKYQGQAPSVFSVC
Sequence of Protein-tyrosine kinase 6 (Q13882 whole entry): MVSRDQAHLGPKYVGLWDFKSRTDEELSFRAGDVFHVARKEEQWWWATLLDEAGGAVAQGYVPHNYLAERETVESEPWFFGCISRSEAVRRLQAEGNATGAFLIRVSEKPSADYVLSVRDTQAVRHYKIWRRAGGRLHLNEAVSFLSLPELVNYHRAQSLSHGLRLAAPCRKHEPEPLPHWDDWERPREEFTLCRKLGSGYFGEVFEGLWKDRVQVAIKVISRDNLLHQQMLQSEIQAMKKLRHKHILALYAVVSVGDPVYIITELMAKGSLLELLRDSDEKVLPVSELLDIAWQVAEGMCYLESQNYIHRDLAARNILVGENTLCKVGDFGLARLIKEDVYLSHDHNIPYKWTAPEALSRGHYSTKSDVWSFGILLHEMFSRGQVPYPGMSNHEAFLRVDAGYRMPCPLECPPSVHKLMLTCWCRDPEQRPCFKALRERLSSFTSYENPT

Take `CC[C@H](Nc1ncnc2[nH]cnc12)c1nc2cccc(F)c2c(=O)n1-c1ccccc1` [IDELALISIB]: the Kd (in test [1]; in test [2]; in test [3]; at Wee1-like protein kinase; in [4]; at GTP-binding protein 4) was > 30 µM (inactive) in each case. The Kd (on ADP/ATP translocase 2; in [5]; in [6]; in test [7]; in test [8]; in test [9]) was > 30 µM (inactive) throughout. Moreover, the Kd in test [10] is > 30 µM (inactive).

Turning to `CNC(=O)CN1CCC(Oc2cc3c(Nc4cccc(Cl)c4F)ncnc3cc2OC)CC1` [SAPITINIB], the Kd (in [1]; in test [2]; in [3]; on Wee1-like protein kinase; in test [4]; at GTP-binding protein 4) was > 30 µM (inactive) each time. For the same compound, the Kd (at ADP/ATP translocase 2; in [5]; in [6]; in test [7]; in test [8]; in test [9]) was > 30 µM (inactive) each time. Moreover, the Kd in test [10] is 2.2 µM (active).

For the compound `Cc1ccc(S(=O)(=O)Nc2nc3ccccc3nc2Nc2ccc3nsnc3c2)cc1`, the Kd (in test [1]; in [2]; in [3]; at Wee1-like protein kinase; in [4]; on GTP-binding protein 4) was > 30 µM (inactive) each time. Further, the Kd (on ADP/ATP translocase 2; in test [5]; in test [6]; in test [7]; in [8]; in [9]) was > 30 µM (inactive) in each case. The Kd in [10] was > 30 µM (inactive).

In the case of `CCS(=O)(=O)N1CC(CC#N)(n2cc(-c3ncnc4[nH]ccc34)cn2)C1` [BARICITINIB], the Kd (in [1]; in [2]; in test [3]; on Wee1-like protein kinase; in test [4]; at GTP-binding protein 4) was > 30 µM (inactive) throughout. Also, the Kd at ADP/ATP translocase 2 is > 30 µM (inactive); in test [5], > 30 µM (inactive); in test [6], > 30 µM (inactive); in test [7] it was > 30 µM (inactive); in [8], > 30 µM (inactive); in [9], 0.81 µM (active). The Kd in test [10] was > 30 µM (inactive).

As for `Cc1ccc(NC(=O)c2ccc(CN3CC[C@H](N(C)C)C3)c(C(F)(F)F)c2)cc1Nc1nccc(-c2cncnc2)n1` [BAFETINIB], the Kd (in [1]; in test [2]; in test [3]; on Wee1-like protein kinase; in [4]; on GTP-binding protein 4) was > 30 µM (inactive) each time. The Kd (at ADP/ATP translocase 2; in [5]; in test [6]; in test [7]; in [8]; in [9]) was > 30 µM (inactive) each time. The Kd in test [10] was > 30 µM (inactive).

`CNS(=O)(=O)Nc1nccc(Cc2c(C)c3ccc(Oc4ncccn4)cc3oc2=O)c1F` [AVUTOMETINIB]: the Kd (in test [1]; in [2]; in test [3]; on Wee1-like protein kinase; in test [4]; on GTP-binding protein 4) was > 30 µM (inactive) in each case. Further, the Kd (on ADP/ATP translocase 2; in test [5]; in test [6]; in test [7]; in test [8]; in [9]) was > 30 µM (inactive) in each case. Further, in test [10], the Kd is > 30 µM (inactive).

`COc1ccc(-c2ccc3c(N4CCOC[C@@H]4C)nc(N4CCOC[C@@H]4C)nc3n2)cc1CO` [AZD-8055]: the Kd (in [1]; in test [2]; in test [3]; on Wee1-like protein kinase; in [4]; at GTP-binding protein 4) was > 30 µM (inactive) each time. The Kd (at ADP/ATP translocase 2; in [5]; in [6]; in [7]; in test [8]; in test [9]) was > 30 µM (inactive) each time. Besides, the Kd in test [10] was > 30 µM (inactive).

For `O=C(O)[C@]1(Cc2cccc(Nc3nccs3)n2)CC[C@@H](Oc2cccc(Cl)c2F)CC1` [MK-5108], the Kd in test [1] is > 30 µM (inactive); in test [2] it was > 30 µM (inactive); in test [3], > 30 µM (inactive); at Wee1-like protein kinase, > 30 µM (inactive); in [4] it was 3.08 µM (active); on GTP-binding protein 4 it was > 30 µM (inactive). The Kd on ADP/ATP translocase 2 is > 30 µM (inactive); in [5], > 30 µM (inactive); in test [6], 1.09 µM (active); in [7] it was > 30 µM (inactive); in test [8], > 30 µM (inactive); in test [9] it was > 30 µM (inactive). For the same compound, in test [10], the Kd was 0.841 µM (active).

For `COc1cc2nccc(Oc3ccc(NC(=O)Nc4cc(C)on4)c(Cl)c3)c2cc1OC` [TIVOZANIB], the Kd (in test [1]; in [2]; in test [3]; on Wee1-like protein kinase; in [4]; on GTP-binding protein 4) was > 30 µM (inactive) throughout. Besides, the Kd at ADP/ATP translocase 2 was > 30 µM (inactive); in test [5], > 30 µM (inactive); in test [6], 4.62 µM (active); in test [7] it was > 30 µM (inactive); in [8] it was > 30 µM (inactive); in test [9], > 30 µM (inactive). In test [10], the Kd was 0.787 µM (active).

The record behind these values is ChEMBL document CHEMBL3991601, “The target landscape of clinical kinase drugs” (Science, 2017).
